{"source": "patent US20060234297A1", "about": "“Screening method” (priority 2003, published 2006)", "origin": "cited, not measured here", "key": {"[1]": {"test_system": "progression of arteriosclerosis", "conditions": "clinical study"}, "[2]": {"test_system": "mouse macrophages stimulated with phorbol ester or tumor necrosis factor (TNF-α)"}}, "data": [{"compound": "CCOC(=O)C1=C(C)NC(C)=C(C(=O)OCC)C1c1ccccc1/C=C/C(=O)OC(C)(C)C", "note": "[lacidipine]", "values": [{"measurement": "effect on the progression of arteriosclerosis", "setting": "[1]", "value": "suppressive effect on the progression of arteriosclerosis"}, {"measurement": "MMP-9 secretion and production", "setting": "[2]", "value": "suppressed MMP-9 secretion and production"}]}]}
